Source: PubChem BioAssay AID248 (DTP/NCI, 2004)
Several values for one entry are separate records, joined by “and”; a condition that tells them apart may be missing. Equal entries are not always repeated. Inconclusive results and toxic doses are left out. No stated cut-off is given here; in the data, active means T/C of 150% or more; inactive means T/C below 125%.

Tested on: L1210 leukemia ip in BDF1 mice, survival T/C
Assay: NCI In Vivo Anticancer Drug Screen. Data for tumor model L1210 Leukemia (intraperitoneal) in B6D2F1 (BDF1) mice
Conditions: endpoint: mean survival time, higher = longer survival
Method in brief: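 Transplantable tumor model; survival measured in treated vs vehicle control mice. Value = treated/control.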

[1] = dose: 25.0 mg/kg/injection, schedule: Q01DX009 (ip), vehicle: water
[2] = dose: 50.0 mg/kg/injection, schedule: Q01DX009 (ip), vehicle: water
[3] = dose: 100.0 mg/kg/injection, schedule: Q01DX009 (ip), vehicle: Klucel (hydroxypropylcellulose) (HPC)
[4] = dose: 100.0 mg/kg/injection, schedule: Q04DX003 (ip), vehicle: Klucel (hydroxypropylcellulose) (HPC)
[5] = dose: 200.0 mg/kg/injection, schedule: Q01DX009 (ip), vehicle: Klucel (hydroxypropylcellulose) (HPC)
[6] = dose: 200.0 mg/kg/injection, schedule: Q04DX003 (ip), vehicle: Klucel (hydroxypropylcellulose) (HPC)
[7] = dose: 400.0 mg/kg/injection, schedule: Q01DX009 (ip), vehicle: Klucel (hydroxypropylcellulose) (HPC)
[8] = dose: 400.0 mg/kg/injection, schedule: Q04DX003 (ip), vehicle: Klucel (hydroxypropylcellulose) (HPC)
[9] = dose: 12.5 mg/kg/injection, schedule: Q01DX009 (ip), vehicle: saline
[10] = dose: 12.5 mg/kg/injection, schedule: Q04DX003 (ip), vehicle: saline
[11] = dose: 25.0 mg/kg/injection, schedule: Q01DX009 (ip), vehicle: saline
[12] = dose: 25.0 mg/kg/injection, schedule: Q04DX003 (ip), vehicle: saline
[13] = dose: 100.0 mg/kg/injection, schedule: Q01DX001 (ip), vehicle: Klucel (hydroxypropylcellulose) (HPC)
[14] = dose: 200.0 mg/kg/injection, schedule: Q01DX001 (ip), vehicle: Klucel (hydroxypropylcellulose) (HPC)
[15] = dose: 100.0 mg/kg/injection, schedule: Q04DX002 (ip), vehicle: Klucel (hydroxypropylcellulose) (HPC)
[16] = dose: 200.0 mg/kg/injection, schedule: Q04DX002 (ip), vehicle: Klucel (hydroxypropylcellulose) (HPC)
[17] = dose: 400.0 mg/kg/injection, schedule: Q04DX002 (ip), vehicle: Klucel (hydroxypropylcellulose) (HPC)
[18] = dose: 100.0 mg/kg/injection, schedule: Q04DX003 (ip), vehicle: saline with Tween-80
[19] = dose: 200.0 mg/kg/injection, schedule: Q04DX003 (ip), vehicle: saline with Tween-80
[20] = dose: 400.0 mg/kg/injection, schedule: Q04DX003 (ip), vehicle: saline with Tween-80

Measured: T/C

CC(C)(Br)C(=O)c1ccc(-c2ccccc2)cc1
inactive: [1] 101 % of control | [2] 101 % of control | [3] 89 % of control | dose: 100.0 mg/kg/injection, schedule: Q01DX009 (ip), vehicle: water 98 % of control | [4] 100 % of control | [5] 87 % of control | dose: 200.0 mg/kg/injection, schedule: Q01DX009 (ip), vehicle: water 95 % of control | [6] 94 % of control | [7] 92 % of control | dose: 400.0 mg/kg/injection, schedule: Q01DX009 (ip), vehicle: water 92 % of control | [8] 91 % of control

[CH3][Sb]([CH3])[S]C1OC(CO)C(O)C(O)C1O (stereo not given)
inactive: dose: 12.5 mg/kg/injection, schedule: Q04DX003 (ip), vehicle: Klucel (hydroxypropylcellulose) (HPC) 99 % of control | dose: 25.0 mg/kg/injection, schedule: Q04DX003 (ip), vehicle: Klucel (hydroxypropylcellulose) (HPC) 89 % of control | dose: 50.0 mg/kg/injection, schedule: Q04DX003 (ip), vehicle: Klucel (hydroxypropylcellulose) (HPC) 95 % of control

C1=C(c2ccccc2)[P+](c2ccccc2)(c2ccccc2)C=C(c2ccccc2)[P+]1(c1ccccc1)c1ccccc1
inactive: [9] 108 % of control | [10] 106 % of control | [11] 109 % of control | [12] 109 % of control | dose: 50.0 mg/kg/injection, schedule: Q04DX003 (ip), vehicle: saline 102 % of control

NC(=S)/C(N)=N/Nc1ccc(Cl)cc1
inactive: dose: 12.5 mg/kg/injection, schedule: Q01DX009 (ip), vehicle: saline with Tween-80 92 % of control | [9] 108 % of control | dose: 25.0 mg/kg/injection, schedule: Q01DX009 (ip), vehicle: saline with Tween-80 92 % of control | [11] 120 % of control | dose: 50.0 mg/kg/injection, schedule: Q01DX009 (ip), vehicle: saline 103 % of control

O=C(O)CNC1CSSC1
inactive: [1] 106 % of control | [2] 106 % of control

O=C1OC(=O)C(Br)C1Br (stereo not given)
inactive: dose: 1.56 mg/kg/injection, schedule: Q04DX003 (ip), vehicle: saline 106 % of control | dose: 3.12 mg/kg/injection, schedule: Q04DX003 (ip), vehicle: saline 106 % of control | dose: 6.25 mg/kg/injection, schedule: Q04DX003 (ip), vehicle: saline 95 % of control | [10] 108 % of control | [12] 87 % of control

Cc1ccc(C(c2ccc(C)c(C)c2)C(O)C(O)C(O)C(O)CO)cc1C (stereo not given)
inactive: [13] 92 % of control | dose: 100.0 mg/kg/injection, schedule: Q01DX001 (ip), vehicle: saline 87 % of control | [14] 100 % of control | dose: 200.0 mg/kg/injection, schedule: Q01DX001 (ip), vehicle: saline 91 % of control | dose: 400.0 mg/kg/injection, schedule: Q01DX001 (ip), vehicle: saline 89 % of control

CSC(NC(=O)c1ccccc1)C(N)=O (stereo not given)
inactive: [15] 101 % of control | [16] 109 % of control | [17] 97 % of control

Cc1nc(Cl)c(Cl)[nH]1
inactive: dose: 100.0 mg/kg/injection, schedule: Q01DX009 (ip), vehicle: saline with Tween-80 97 % of control | dose: 200.0 mg/kg/injection, schedule: Q01DX009 (ip), vehicle: saline with Tween-80 111 % of control

COc1ccc(OC)c(NC(=O)CI)c1
inactive: dose: 25.0 mg/kg/injection, schedule: Q01DX001 (ip), vehicle: Klucel (hydroxypropylcellulose) (HPC) 103 % of control | dose: 50.0 mg/kg/injection, schedule: Q01DX001 (ip), vehicle: Klucel (hydroxypropylcellulose) (HPC) 104 % of control | [13] 98 % of control

CC(=O)OCC(OS(=O)(=O)c1ccc(C)cc1)C(OC(C)=O)C(OC(C)=O)C(COC(C)=O)OS(=O)(=O)c1ccc(C)cc1 (stereo not given)
inactive: dose: 50.0 mg/kg/injection, schedule: Q04DX002 (ip), vehicle: Klucel (hydroxypropylcellulose) (HPC) 90 % of control | [15] 101 % of control | [16] 101 % of control

NC(=Nc1ccc([N+](=O)[O-])cc1)c1ccccc1
inactive: [18] 98 % of control | [19] 102 % of control | [20] 100 % of control

CCCCNc1cc(N)[nH]c(=O)n1
inactive: dose: 75.0 mg/kg/injection, schedule: Q01DX001 (ip), vehicle: saline with Tween-80 93 % of control | dose: 150.0 mg/kg/injection, schedule: Q01DX001 (ip), vehicle: saline with Tween-80 90 % of control | dose: 300.0 mg/kg/injection, schedule: Q01DX001 (ip), vehicle: saline with Tween-80 90 % of control

Cc1ccc2nc(-c3cc(Br)ccc3O)c(-c3cc(Br)ccc3O)nc2c1
inactive: [3] 97 % of control | [4] 96 % of control | [5] 100 % of control | [6] 101 % of control | [7] 89 % of control | [8] 101 % of control

C=CN(C=C)P(=O)(C1C(=O)C(C(=O)OCC)C(c2ccc(OC(C)=O)cc2)C(C(=O)OCC)C1=O)C1C(=O)C(C(=O)OCC)C(c2ccc(OC(C)=O)cc2)C(C(=O)OCC)C1=O (stereo not given)
inactive: [18] 97 % of control | [19] 96 % of control | [20] 100 % of control

NC(=O)C(O)C(O)C(O)C(O)CO (stereo not given)
inactive: dose: 100.0 mg/kg/injection, schedule: Q04DX002 (ip), vehicle: saline 91 % of control and 99 % of control | dose: 200.0 mg/kg/injection, schedule: Q04DX002 (ip), vehicle: saline 95 % of control and 96 % of control | dose: 400.0 mg/kg/injection, schedule: Q04DX002 (ip), vehicle: saline 95 % of control and 105 % of control

CCC(C)OC(=O)Nc1cccc(OC(=O)NC)c1 (stereo not given)
inactive: [18] 104 % of control | [19] 94 % of control | [20] 97 % of control

c1ccc([P+](CC[P+](c2ccccc2)(c2ccccc2)c2ccccc2)(c2ccccc2)c2ccccc2)cc1
inactive: dose: 2.5 mg/kg/injection, schedule: Q04DX003 (ip), vehicle: saline 96 % of control | dose: 5.0 mg/kg/injection, schedule: Q01DX009 (ip), vehicle: saline 96 % of control | dose: 5.0 mg/kg/injection, schedule: Q04DX003 (ip), vehicle: saline 98 % of control | dose: 10.0 mg/kg/injection, schedule: Q01DX009 (ip), vehicle: saline 96 % of control | dose: 10.0 mg/kg/injection, schedule: Q04DX003 (ip), vehicle: saline 95 % of control and 98 % of control | dose: 20.0 mg/kg/injection, schedule: Q01DX009 (ip), vehicle: saline 104 % of control

CN(C)C=Nc1ccc([N+](=O)[O-])c2ccccc12
inactive: [18] 103 % of control | [19] 106 % of control | [20] 104 % of control

NNC(=O)c1ccc(Cl)cc1Nc1ccccc1
inactive: [13] 95 % of control | [3] 107 % of control | [14] 86 % of control | [5] 94 % of control | dose: 400.0 mg/kg/injection, schedule: Q01DX001 (ip), vehicle: Klucel (hydroxypropylcellulose) (HPC) 97 % of control

O=C(COc1ccc(F)cc1)N(CCO)CCO
inactive: [15] 96 % of control | [16] 92 % of control | [17] 114 % of control
